“Also recorded” adds a separate entry of the source.
Assay: Phase I dose escalation: safety and tolerability (DLT, MTD, adverse events, NCI-CTCAE 4.03)

Structure (SMILES): CNC(=O)c1cccc(-c2ccc3c(N4C5CCC4COC5)nc(N4CCOC[C@@H]4C)nc3n2)c1 [LXI-15029]
- ≥ 10% TRAE: Decreased appetite (80 mg BID (n = 4)): 1 (25.0) n (%)
- ≥ 10% TRAE: Diarrhea (80 mg BID (n = 4)): 2 (50.0) n (%)
- ≥ 10% TRAE: ECG QT prolonged (80 mg BID (n = 4)): 1 (25.0) n (%)
- ≥ 10% TRAE: Fatigue (80 mg BID (n = 4)): 2 (50.0) n (%)
- ≥ 10% TRAE: GGT increased (80 mg BID (n = 4)): 0 n (%)
- ≥ 10% TRAE: Hypercholesterolemia (80 mg BID (n = 4)): 0 n (%)
- ≥ 10% TRAE: Hypertriglyceridemia (80 mg BID (n = 4)): 0 n (%)
- ≥ 10% TRAE: LDL increased (80 mg BID (n = 4)): 0 n (%)
- ≥ 10% TRAE: Leukocytopenia (80 mg BID (n = 4)): 2 (50.0) n (%)
- ≥ 10% TRAE: Neutropenia (80 mg BID (n = 4)): 0 n (%)
- ≥ 10% TRAE: Sinus bradycardia (80 mg BID (n = 4)): 1 (25.0) n (%)
- Patients with any TEAE (110 mg BID (n = 3)): 3 (100.0) n (%)
- Patients with any TEAE, maximum CTCAE Grade 1 (110 mg BID (n = 3)): 3 (100.0) n (%)
- Patients with any TEAE, maximum CTCAE Grade 2 (110 mg BID (n = 3)): 0 n (%)
- Patients with any TEAE, maximum CTCAE Grade 3 (110 mg BID (n = 3)): 0 n (%)
- ≥ 10% TRAE: ALT increased (110 mg BID (n = 3)): 1 (33.3) n (%)
- ≥ 10% TRAE: AST increased (110 mg BID (n = 3)): 2 (66.7) n (%)
- ≥ 10% TRAE: Decreased appetite (110 mg BID (n = 3)): 0 n (%)
- ≥ 10% TRAE: Diarrhea (110 mg BID (n = 3)): 0 n (%)
- ≥ 10% TRAE: ECG QT prolonged (110 mg BID (n = 3)): 2 (66.7) n (%)
- ≥ 10% TRAE: Fatigue (110 mg BID (n = 3)): 0 n (%)
- ≥ 10% TRAE: GGT increased (110 mg BID (n = 3)): 0 n (%)
- ≥ 10% TRAE: Hypercholesterolemia (110 mg BID (n = 3)): 0 n (%)
- ≥ 10% TRAE: Hypertriglyceridemia (110 mg BID (n = 3)): 0 n (%)
- ≥ 10% TRAE: LDL increased (110 mg BID (n = 3)): 0 n (%)
- ≥ 10% TRAE: Leukocytopenia (110 mg BID (n = 3)): 1 (33.3) n (%)
- ≥ 10% TRAE: Neutropenia (110 mg BID (n = 3)): 0 n (%)
- ≥ 10% TRAE: Sinus bradycardia (110 mg BID (n = 3)): 0 n (%)
- Patients with any TEAE (150 mg BID (n = 4)): 4 (100.0) n (%)
- Patients with any TEAE, maximum CTCAE Grade 1 (150 mg BID (n = 4)): 2 (50.0) n (%)
- Patients with any TEAE, maximum CTCAE Grade 2 (150 mg BID (n = 4)): 1 (25.0) n (%)
- Patients with any TEAE, maximum CTCAE Grade 3 (150 mg BID (n = 4)): 1 (25.0) n (%)
- ≥ 10% TRAE: ALT increased (150 mg BID (n = 4)): 2 (50.0) n (%)
- ≥ 10% TRAE: AST increased (150 mg BID (n = 4)): 2 (50.0) n (%)
- ≥ 10% TRAE: Decreased appetite (150 mg BID (n = 4)): 1 (25.0) n (%)
- ≥ 10% TRAE: Diarrhea (150 mg BID (n = 4)): 0 n (%)
- ≥ 10% TRAE: ECG QT prolonged (150 mg BID (n = 4)): 0 n (%)
- ≥ 10% TRAE: Fatigue (150 mg BID (n = 4)): 0 n (%)
- ≥ 10% TRAE: GGT increased (150 mg BID (n = 4)): 2 (50.0) n (%)
- ≥ 10% TRAE: Hypercholesterolemia (150 mg BID (n = 4)): 0 n (%)
- ≥ 10% TRAE: Hypertriglyceridemia (150 mg BID (n = 4)): 1 (25.0) n (%)
- ≥ 10% TRAE: LDL increased (150 mg BID (n = 4)): 0 n (%)
- ≥ 10% TRAE: Leukocytopenia (150 mg BID (n = 4)): 3 (75.0) n (%)
- ≥ 10% TRAE: Neutropenia (150 mg BID (n = 4)): 3 (75.0) n (%)
- ≥ 10% TRAE: Sinus bradycardia (150 mg BID (n = 4)): 1 (25.0) n (%)
- dose-limiting toxicity (DLT) (150 mg BID group, one participant, within the DLT observation window): grade 3 increased alanine aminotransferase (ALT); also recorded: Only one DLT was observed
- Patients with any TEAE, maximum CTCAE Grade 1 (Total (n = 24)): 15 (62.5) n (%)
- Patients with any TEAE, maximum CTCAE Grade 2 (Total (n = 24)): 6 (25.0) n (%)
- Patients with any TEAE, maximum CTCAE Grade 3 (Total (n = 24)): 1 (4.2) n (%)
- ≥ 10% TRAE: ALT increased (Total (n = 24)): 5 (20.8) n (%)
- ≥ 10% TRAE: AST increased (Total (n = 24)): 5 (20.8) n (%)
- ≥ 10% TRAE: Decreased appetite (Total (n = 24)): 3 (12.5) n (%)
- ≥ 10% TRAE: Diarrhea (Total (n = 24)): 4 (16.7) n (%)
- ≥ 10% TRAE: ECG QT prolonged (Total (n = 24)): 5 (20.8) n (%)
- ≥ 10% TRAE: Fatigue (Total (n = 24)): 4 (16.7) n (%)
- ≥ 10% TRAE: GGT increased (Total (n = 24)): 4 (16.7) n (%)
- ≥ 10% TRAE: Hypercholesterolemia (Total (n = 24)): 3 (12.5) n (%)
- ≥ 10% TRAE: Hypertriglyceridemia (Total (n = 24)): 5 (20.8) n (%)
- ≥ 10% TRAE: LDL increased (Total (n = 24)): 3 (12.5) n (%)
- ≥ 10% TRAE: Leukocytopenia (Total (n = 24)): 10 (41.7) n (%)
- ≥ 10% TRAE: Neutropenia (Total (n = 24)): 4 (16.7) n (%)
- ≥ 10% TRAE: Sinus bradycardia (Total (n = 24)): 4 (16.7) n (%)
- TRAEs of CTCAE grade 1 (all doses): 62.5%
- TRAEs of CTCAE grade 2 (all doses): 25%
- other serious treatment-related AEs (besides the DLT) (all doses): No other serious treatment-related AEs were reported
- mean ALT change from baseline (all doses except the 10-mg and 80-mg doses): increased slightly
- mean AST change from baseline (all doses except the 10-mg, 60-mg, and 80-mg doses): increased slightly
- treatment-related AE: hypertriglyceridemia (all doses, 24 patients): 20.8%
- treatment-related AE: increased alanine aminotransferase (all doses, 24 patients): 20.8%
- treatment-related AE: increased aspartate aminotransferase (all doses, 24 patients): 20.8%
- treatment-related AE: leukocytopenia (all doses, 24 patients): 41.7%
- treatment-related AE: prolonged electrocardiogram QT interval (all doses, 24 patients): 20.8%
- deaths within 28 days of the last dose (attributed to disease progression unrelated to treatment): One
- association of AE rates, laboratory parameters, vital signs, ECG, other safety data with dose levels (descriptive results): No apparent associations
- participants with TEAEs leading to LXI-15029 discontinuation (of 24 participants): Three
- participants with a TRAE leading to LXI-15029 discontinuation (of 24 participants): one
- participants with a serious TRAE (of 24 participants): one
- participants with serious TEAEs (of 24 participants): Five
- participants with treatment-emergent AEs (TEAEs) (of 24 participants): 24 participants
- participants with treatment-related AEs (TRAEs) (of 24 participants): 22 participants
- patients with TEAEs occurring within 30 days after LXI-15029 discontinuation (of 24 participants): Eleven
- treatment discontinuation because of AEs (of 24 participants): 2 (8.3%) n (%)
- treatment discontinuation because of DLT (of 24 participants): 1 (4.2%) n (%)
- tolerability (oral BID, 10 to 150 mg): well tolerated at all doses; also recorded: well tolerated at all dose levels; also recorded: well tolerable
- maximum tolerated dose (MTD) (oral monotherapy, Chinese patients with advanced solid tumors): 110 mg BID
